In US20110097274A1, “Carbon-11 and fluorine-18 labeled radioligands for positron emission tomography (PET) imaging for the brain serotonin transporters” (priority 2002, published 2011):
Values joined by “and” are separate entries in the source; they are usually repeats but may differ in a detail not shown here. Identical values can stand only once. Like-named read-outs stand apart in the source and are kept apart here.

How the values were obtained:
[1] = Plasma free fraction (f1) and filter retention by ultrafiltration; assay type: in vitro ADME, baboon; conditions: mean ± SD of four experiments
Description: Plasma and ultrafiltrate activities were counted, and f1 was calculated as the ratio of ultrafiltrate activity to total plasma activity. Triplicate aliquots of the radioligand in pH 7.4 Tris buffer were also processed to determine the filter retention of free tracer.

[2] = Baboon PET imaging: brain uptake, kinetic analysis and SERT parameters; assay type: in vivo; conditions: male, baboon, intravenous, baboons
Description: (§1) PET imaging protocol: PET experiments (n=20) were performed at Columbia University. Two adult male baboons (baboon A and B) were studied twice with each of the 5 radioligands (4 experiments per radioligand). All experiments took place within a 9-month period. Baboons A and B were 31 kg and 21 kg in weight at the beginning of the experimental period and 28 and 22 kg at the end, respectively. Test and retest experiments with the same radioligand were obtained on different days, with an average interval of 117±53 days.
(§2) Experiments were performed according to protocols approved by the Columbia-Presbyterian Medical Center Institutional Animal Care and Use Committee. Fasted animals were immobilized with ketamine (10 mg/kg i.m.), and anesthetized with 1.8% isoflurane via an endotracheal tube. Vital signs were monitored every 10 minutes and the temperature was kept constant at 37° C. with heated water blankets. An i.v. perfusion line was used for hydration and injection of radioligands and nonradioactive drugs. A catheter was inserted in a femoral artery for arterial blood sampling. Head was positioned at the center of the field of view as defined by imbedded laser lines. PET imaging was performed with the ECAT EXACT HR+PET scanner (Siemens/CTI, Knoxville, Tenn.). In 3D mode, this camera provides an in-plane resolution of 4.3 mm, 4.5 mm, 5.4 mm and 8.0 mm full width at half maximum (FWHM) at a distance of 0, 1, 10 and 20 cm from the center of the field of view, respectively (Brix et al., 1997). A 15 minute transmission scan was obtained prior to radioligand injection for attenuation correction. Activity was injected i.v. over 30 seconds. […] Emission data was collected in the 3D mode for 91 minutes as 21 successive frames of increasing duration (6*10 seconds, 2*1 minutes, 4*2 minutes, 2*5 minutes, and 7*10 minutes).
(§3) Image analysis: A Magnetic Resonance Image (MRI) of each baboon's brain was obtained for the purpose of identifying the regions of interest (ROI) (T1-weighted axial MRI sequence, acquired parallel to the anterior-posterior commissure, TR 34 msec, TE 5 msec, flip angle of 45 degrees, slice thickness is 1.5 mm, zero gap, matrix 1.5 mm×1 mm×1 mm voxels). The following regions were drawn on the MR images: cerebellum, midbrain, thalamus, striatum, hippocampus, temporal cortex, cingulate cortex and occipital cortex.
(§4) PET emission data were attenuation-corrected using the transmission scan, and frames were reconstructed using a Shepp filter (cutoff 0.5 cycles/projection rays). Reconstructed image files were then processed using the image analysis software MEDx (Sensor Systems, Inc., Sterling, Va.). An image was created by summing all the frames, and this summed image was used to define the registration parameters with the MR image, using between-modality automated image registration (AIR) algorithm (Woods et al., 1993). Registration parameters were then applied to the individual frames for registration to the MR data set. Regional boundaries were transferred to the individual registered PET frames, and time-activity curves were measured and decay-corrected. Right and left regions were averaged. For a given animal, the same regions were used for all radioligands.
(§5) Brain uptake: Total brain uptake was expressed as percentage of the injected dose per gram of tissue (% ID g^−1) in a region encompassing the entire brain. Regional peak time was defined as the mid-time of the frame associated with the highest activity value. To estimate the degree of wash-out from the brain captured during the scan interval (91 minutes), the decrease in activity from the peak frame to the last frame was calculated and expressed in percentage of the peak activity.
(§6) Kinetic analysis: Regional total distribution volumes (VT, mL g^−1) were derived with kinetic analysis of the regional time-activity curves, using the arterial plasma concentrations as input function. […]

SERT = assay: as above; assay type: in vivo; conditions: for Kp: male, baboon, brain, intravenous
Description: as §1, §2, §3, §4, §5, §6

[3] = BP = VT ROI − VT CER, baboons, mean ± SD of four experiments
[4] = Mean ± SD of four experiments in two baboons
[5] = baboon A, experiments of FIGS. 5-9 (FIG. 10)
[6] = baboons, mean ± SD of four experiments
[7] = last scan 90 minutes, baboons, mean ± SD of four experiments
[8] = one-tissue compartment model, baboons, mean ± SD of four experiments

CN(C)Cc1ccccc1Sc1ccc(I)cc1N [[^11C]ADAM]
Filter retention ([1]; activity remaining on filter, radioligand dissolved in saline): 88.2 ± 5.2%
fraction unbound at 20 min ([1]; male, monkey, baboon plasma, ultrafiltration): 0.009 ± 0.007
Kp ([2]; brain regions (average of all regions), read-out: VT, average of all regions and all animals): 42.8 ± 12.9
Kp ([2]; cerebellum, one-tissue compartment model, mean ± SD of four experiments, read-out: VT Cerebellum (VT CER, nonspecific distribution volume)): 28.5 ± 4.8
Binding potential Cingulate Cortex (SERT; [3]): 8.8 ± 3.9 mL/g
Binding potential Hippocampus (SERT; [3]): 12.6 ± 3.3 mL/g
Binding potential Midbrain (SERT; [3]): 28.5 ± 6.7 mL/g
Binding potential Occipital Cortex (SERT; [3]): 4.9 ± 3.8 mL/g
Binding potential Striatum (SERT; [3]): 17.8 ± 3.7 mL/g
Binding potential Temporal Cortex (SERT; [3]): 10.1 ± 5.0 mL/g
Binding potential Thalamus (SERT; [3]): 31.4 ± 6.1 mL/g
Equilibrium specific to non-specific partition coefficient (V3″) Cingulate Cortex (SERT; Baboon A, single experiment): 0.28 and 0.43
Equilibrium specific to non-specific partition coefficient (V3″) Hippocampus (SERT; Baboon A, single experiment): 0.41 and 0.49
Equilibrium specific to non-specific partition coefficient (V3″) Midbrain (SERT; Baboon A, single experiment): 1.04 and 0.81
Equilibrium specific to non-specific partition coefficient (V3″) Striatum (SERT; Baboon A, single experiment): 0.65 and 0.59
Equilibrium specific to non-specific partition coefficient (V3″) Temporal Cortex (SERT; Baboon A, single experiment): 0.41 and 0.47
Equilibrium specific to non-specific partition coefficient (V3″) Thalamus (SERT; Baboon A, single experiment): 1.18 and 0.92
Equilibrium specific to non-specific partition coefficient (V3″) Cingulate Cortex (SERT; Baboon B, single experiment): 0.23 and 0.26
Equilibrium specific to non-specific partition coefficient (V3″) Hippocampus (SERT; Baboon B, single experiment): 0.38 and 0.47
Equilibrium specific to non-specific partition coefficient (V3″) Midbrain (SERT; Baboon B, single experiment): 0.91 and 1.25
Equilibrium specific to non-specific partition coefficient (V3″) Occipital Cortex (SERT; Baboon B, single experiment): 0.07 and 0.12
Equilibrium specific to non-specific partition coefficient (V3″) Striatum (SERT; Baboon B, single experiment): 0.56 and 0.68
Equilibrium specific to non-specific partition coefficient (V3″) Temporal Cortex (SERT; Baboon B, single experiment): 0.18 and 0.30
Equilibrium specific to non-specific partition coefficient (V3″) Thalamus (SERT; Baboon B, single experiment): 1.05 and 1.26
Equilibrium specific to non-specific partition coefficient (V3″) Cingulate Cortex (SERT; [4]): 0.30 ± 0.09
Equilibrium specific to non-specific partition coefficient (V3″) Hippocampus (SERT; [4]): 0.44 ± 0.05
Equilibrium specific to non-specific partition coefficient (V3″) Midbrain (SERT; [4]): 1.00 ± 0.19
Equilibrium specific to non-specific partition coefficient (V3″) Occipital Cortex (SERT; [4]): 0.16 ± 0.11
Equilibrium specific to non-specific partition coefficient (V3″) Striatum (SERT; [4]): 0.62 ± 0.06
Equilibrium specific to non-specific partition coefficient (V3″) Temporal Cortex (SERT; [4]): 0.34 ± 0.13
Equilibrium specific to non-specific partition coefficient (V3″) Thalamus (SERT; [4]): 1.10 ± 0.15
Thalamus to cerebellum ratio equal to true equilibrium ratio (V3″+1) (SERT; [5]): 1.92
Time at which measured thalamus to cerebellum ratio equals the true equilibrium ratio (estimate of peak specific binding) (SERT; [5]): 55 min
K1, average of all regions and all animals (SERT; baboons): 1.09 ± 0.35 mL/g/min
k2, average of all regions and all animals (SERT; baboons): 0.028 ± 0.011 min⁻¹
V3″ expressed in percentage of [^11C]McN 5652 V3″ (SERT; baboons, combining all regions): 128±24%
Mean regional peak uptake time (SERT; baboons, mean of all regions): 37 ± 18 min
Mean regional wash-out (% decrease between peak time and last scan) (SERT; baboons, mean of all regions): 25±14%
Cingulate Cortex to cerebellum activity ratio at 90 minutes (SERT; [6]): 1.29 ± 0.07
Hippocampus to cerebellum activity ratio at 90 minutes (SERT; [6]): 1.45 ± 0.06
Midbrain to cerebellum activity ratio at 90 minutes (SERT; [6]): 1.96 ± 0.18
Occipital Cortex to cerebellum activity ratio at 90 minutes (SERT; [6]): 1.14 ± 0.09
Regional uptake peak time Cerebellum (SERT; [6]): 14 ± 5 min
Regional uptake peak time Cingulate Cortex (SERT; [6]): 32 ± 17 min
Regional uptake peak time Hippocampus (SERT; [6]): 46 ± 8 min
Regional uptake peak time Midbrain (SERT; [6]): 49 ± 22 min
Regional uptake peak time Occipital Cortex (SERT; [6]): 30 ± 18 min
Regional uptake peak time Striatum (SERT; [6]): 39 ± 15 min
Regional uptake peak time Temporal Cortex (SERT; [6]): 39 ± 13 min
Regional uptake peak time Thalamus (SERT; [6]): 51 ± 24 min
Striatum to cerebellum activity ratio at 90 minutes (SERT; [6]): 1.65 ± 0.13
Temporal Cortex to cerebellum activity ratio at 90 minutes (SERT; [6]): 1.33 ± 0.08
Thalamus to cerebellum activity ratio at 90 minutes (SERT; [6]): 2.05 ± 0.23
Total brain uptake at 45 min (SERT; baboons, region encompassing the entire brain): 0.017±0.001 % ID g^−1
Regional activity wash-out: % decrease from peak to last scan, Cerebellum (SERT; [7]): 45 ± 8%
Regional activity wash-out: % decrease from peak to last scan, Cingulate Cortex (SERT; [7]): 34 ± 7%
Regional activity wash-out: % decrease from peak to last scan, Hippocampus (SERT; [7]): 15 ± 6%
Regional activity wash-out: % decrease from peak to last scan, Midbrain (SERT; [7]): 10 ± 7%
Regional activity wash-out: % decrease from peak to last scan, Occipital Cortex (SERT; [7]): 36 ± 10%
Regional activity wash-out: % decrease from peak to last scan, Striatum (SERT; [7]): 23 ± 6%
Regional activity wash-out: % decrease from peak to last scan, Temporal Cortex (SERT; [7]): 25 ± 8%
Regional activity wash-out: % decrease from peak to last scan, Thalamus (SERT; [7]): 12 ± 5%
Kp (SERT; cingulate cortex, one-tissue compartment model, baboons, mean ± SD of four experiments, read-out: VT Cingulate Cortex): 37.3 ± 8.5
Kp (SERT; hippocampus, one-tissue compartment model, baboons, mean ± SD of four experiments, read-out: VT Hippocampus): 41.1 ± 8
Kp (SERT; midbrain, one-tissue compartment model, baboons, mean ± SD of four experiments, read-out: VT Midbrain): 57 ± 10.2
Kp (SERT; occipital cortex, one-tissue compartment model, baboons, mean ± SD of four experiments, read-out: VT Occipital Cortex): 33.5 ± 8.3
Kp (SERT; striatum, one-tissue compartment model, baboons, mean ± SD of four experiments, read-out: VT Striatum): 46.3 ± 8.4
Kp (SERT; temporal cortex, one-tissue compartment model, baboons, mean ± SD of four experiments, read-out: VT Temporal Cortex): 38.6 ± 9.7
Kp (SERT; thalamus, one-tissue compartment model, baboons, mean ± SD of four experiments, read-out: VT Thalamus): 59.9 ± 10.1
K1 Cerebellum (SERT; [8]): 1.23 ± 0.44 mL/g/min
K1 Cingulate Cortex (SERT; [8]): 1.20 ± 0.38 mL/g/min
K1 Hippocampus (SERT; [8]): 0.85 ± 0.32 mL/g/min
K1 Midbrain (SERT; [8]): 1.00 ± 0.35 mL/g/min
K1 Occipital Cortex (SERT; [8]): 1.12 ± 0.33 mL/g/min
K1 Striatum (SERT; [8]): 1.15 ± 0.45 mL/g/min
K1 Temporal Cortex (SERT; [8]): 1.02 ± 0.37 mL/g/min
K1 Thalamus (SERT; [8]): 1.14 ± 0.32 mL/g/min
K2 Cerebellum (SERT; [8]): 0.043 ± 0.012 min⁻¹
K2 Cingulate Cortex (SERT; [8]): 0.033 ± 0.009 min⁻¹
K2 Hippocampus (SERT; [8]): 0.021 ± 0.006 min⁻¹
K2 Midbrain (SERT; [8]): 0.018 ± 0.006 min⁻¹
K2 Occipital Cortex (SERT; [8]): 0.034 ± 0.010 min⁻¹
K2 Striatum (SERT; [8]): 0.025 ± 0.008 min⁻¹
K2 Temporal Cortex (SERT; [8]): 0.027 ± 0.009 min⁻¹
K2 Thalamus (SERT; [8]): 0.020 ± 0.006 min⁻¹
VT Cerebellum (VT CER, nonspecific distribution volume) (SERT; [8]): 28.5 ± 4.8 mL/g
